Source: patent publication US6869977B1, “Skin moisturization compound” (Colonial Chemical Inc., priority 2004, dated 2005)

Tested on: skin
Conditions: for Rating: 5% sample applied to skin, scale of 1 to 5, 1 being poor and 5 being best
Source text: The effect of moisturization can be measured by the appearance of the skin when treated. Untreated skin that is in need of moisturization is rough, scaly and dry looking under the dissection microscope. The application of the moisturization solution to the skin and its effect upon minimizing roughness, scaling and dry appearance is a good measure of moisturization. We performed such an evaluation and rated the performance of a scale of 1 to 5.1 being poor and 5 being best.

Row | Structure (SMILES) | Rating | moisturization effect in words (applied to rough dry skin)
1 | C[N+](C)(C)CCO [Choline] | 4 | 
2 | C[N+](C)(CCO)CC(O)CO.[Cl-] (stereo not shown) [Example 3] | 5 | very effective moisturization agent
3 | OCC(O)CO [Glycerin] | 2 | 
